Common to all, as to experiment: Methyl transferase scintillation proximity assay
Common to all, as to assay type: biochemical
Conditions in all cases: average of two measurements; for inhibition at 10 µM: read-out: MTases Inhibition (%)

Test [1] deals with T1, MLL1 (Trimeric) (Homo sapiens, UniProt Q03164).
T1 construct: purchased DiscoverX BROMOscan (bromodomains); SGC in-house methyltransferase panel
The method in brief: (§1)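 ^3H-SAM + biotinylated substrate, both ~apparent Km per enzyme. Quench: 7.5 M guanidine HCl; dilute in 20 mM Tris pH 8.0; FlashPlate capture 1 h; read CPM. No-compound = 100%, no-enzyme = 0% activity.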

Test [2] concerns the target T2, PRMT3 (Homo sapiens, UniProt O60678).
T2 construct: purchased DiscoverX BROMOscan (bromodomains); SGC in-house methyltransferase panel
The method in brief: as §1

Test [3] concerns the target T3, NSD1 (Homo sapiens, UniProt Q96L73).
T3 construct: purchased DiscoverX BROMOscan (bromodomains); SGC in-house methyltransferase panel
The method in brief:
as §1

Test [4] deals with T4, SETD7 (Homo sapiens, UniProt Q8WTS6).
T4 construct: purchased DiscoverX BROMOscan (bromodomains); SGC in-house methyltransferase panel
T4 sequence (Q8WTS6 1-366): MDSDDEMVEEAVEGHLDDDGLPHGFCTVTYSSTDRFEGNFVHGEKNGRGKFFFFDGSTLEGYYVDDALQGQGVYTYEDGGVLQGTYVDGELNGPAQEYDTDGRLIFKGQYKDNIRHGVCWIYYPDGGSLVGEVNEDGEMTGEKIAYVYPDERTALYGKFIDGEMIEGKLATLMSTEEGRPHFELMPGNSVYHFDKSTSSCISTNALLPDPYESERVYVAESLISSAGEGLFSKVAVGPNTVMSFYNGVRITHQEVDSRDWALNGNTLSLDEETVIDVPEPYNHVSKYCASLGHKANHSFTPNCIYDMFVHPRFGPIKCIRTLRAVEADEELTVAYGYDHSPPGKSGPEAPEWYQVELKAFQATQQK
The method in brief: as §1

Test [5] has as its target T5, SETDB1 (Homo sapiens, UniProt Q15047).
T5 construct: purchased DiscoverX BROMOscan (bromodomains); SGC in-house methyltransferase panel
The method in brief: as §1

Test [6] concerns the target T6, PRMT4 (Homo sapiens, UniProt Q86X55).
T6 construct: purchased DiscoverX BROMOscan (bromodomains); SGC in-house methyltransferase panel
T6 sequence (Q86X55 1-608): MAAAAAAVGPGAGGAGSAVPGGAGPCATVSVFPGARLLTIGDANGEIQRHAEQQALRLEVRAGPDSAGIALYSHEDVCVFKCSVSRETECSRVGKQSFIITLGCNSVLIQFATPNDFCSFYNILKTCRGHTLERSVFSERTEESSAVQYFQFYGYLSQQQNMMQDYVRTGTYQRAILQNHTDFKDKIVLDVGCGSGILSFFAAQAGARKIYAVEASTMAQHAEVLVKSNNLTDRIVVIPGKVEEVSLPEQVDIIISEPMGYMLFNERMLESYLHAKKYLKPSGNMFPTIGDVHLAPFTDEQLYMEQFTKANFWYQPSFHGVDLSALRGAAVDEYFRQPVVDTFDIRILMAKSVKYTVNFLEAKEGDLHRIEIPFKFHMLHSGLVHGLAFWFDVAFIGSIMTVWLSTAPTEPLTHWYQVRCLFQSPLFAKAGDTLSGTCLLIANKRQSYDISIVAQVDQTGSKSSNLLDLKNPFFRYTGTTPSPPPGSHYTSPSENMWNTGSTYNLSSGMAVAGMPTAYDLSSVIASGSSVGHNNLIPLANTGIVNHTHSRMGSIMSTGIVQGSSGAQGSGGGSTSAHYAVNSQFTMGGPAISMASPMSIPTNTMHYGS
The method in brief:
as §1

Test [7] has as its target T7, GLP (Homo sapiens, UniProt Q9H9B1).
T7 construct: purchased DiscoverX BROMOscan (bromodomains); SGC in-house methyltransferase panel
T7 sequence (Q9H9B1 1-1298): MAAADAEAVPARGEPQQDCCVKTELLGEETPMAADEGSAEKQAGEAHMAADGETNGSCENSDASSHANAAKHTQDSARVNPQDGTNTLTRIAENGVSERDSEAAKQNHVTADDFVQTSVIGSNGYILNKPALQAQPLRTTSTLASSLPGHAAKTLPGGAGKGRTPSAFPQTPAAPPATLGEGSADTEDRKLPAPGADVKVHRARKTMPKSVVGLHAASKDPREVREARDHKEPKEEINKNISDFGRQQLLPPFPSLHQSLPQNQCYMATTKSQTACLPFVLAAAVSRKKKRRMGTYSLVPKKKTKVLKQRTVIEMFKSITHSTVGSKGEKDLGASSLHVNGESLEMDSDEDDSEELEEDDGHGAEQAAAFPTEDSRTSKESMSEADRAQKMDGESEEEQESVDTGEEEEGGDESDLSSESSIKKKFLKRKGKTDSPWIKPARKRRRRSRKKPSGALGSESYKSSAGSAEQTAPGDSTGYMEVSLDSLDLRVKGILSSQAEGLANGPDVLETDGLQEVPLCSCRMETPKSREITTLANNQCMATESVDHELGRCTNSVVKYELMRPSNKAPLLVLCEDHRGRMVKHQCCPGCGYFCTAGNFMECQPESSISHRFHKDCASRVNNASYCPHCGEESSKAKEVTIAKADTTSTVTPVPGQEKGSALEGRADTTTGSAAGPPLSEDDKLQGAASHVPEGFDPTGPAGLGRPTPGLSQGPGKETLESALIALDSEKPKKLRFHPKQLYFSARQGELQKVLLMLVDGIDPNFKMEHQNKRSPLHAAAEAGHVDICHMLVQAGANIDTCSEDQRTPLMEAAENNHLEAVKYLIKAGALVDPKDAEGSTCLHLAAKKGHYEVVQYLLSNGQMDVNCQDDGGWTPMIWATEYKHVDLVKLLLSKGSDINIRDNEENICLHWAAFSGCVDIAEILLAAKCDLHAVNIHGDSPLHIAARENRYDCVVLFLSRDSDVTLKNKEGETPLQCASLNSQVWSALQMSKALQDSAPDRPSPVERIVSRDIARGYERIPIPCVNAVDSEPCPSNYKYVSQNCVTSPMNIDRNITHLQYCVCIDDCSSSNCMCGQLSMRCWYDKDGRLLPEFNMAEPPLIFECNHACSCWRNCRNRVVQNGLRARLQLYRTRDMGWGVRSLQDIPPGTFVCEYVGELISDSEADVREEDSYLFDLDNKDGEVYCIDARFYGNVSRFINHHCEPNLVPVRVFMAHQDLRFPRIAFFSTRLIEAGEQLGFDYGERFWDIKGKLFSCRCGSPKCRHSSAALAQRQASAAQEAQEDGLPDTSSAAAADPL
A digest of the protocol: as §1

The target in test [8] is T8, SETD2 (Homo sapiens, UniProt Q9BYW2).
T8 construct: purchased DiscoverX BROMOscan (bromodomains); SGC in-house methyltransferase panel
The method in brief:
as §1

Test [9] deals with T9, MLL3 (pentameric) (Homo sapiens, UniProt Q8NEZ4).
T9 construct: purchased DiscoverX BROMOscan (bromodomains); SGC in-house methyltransferase panel
The method in brief: as §1

The structures appear in SMILES notation.

T8 sequence (Q9BYW2 whole entry): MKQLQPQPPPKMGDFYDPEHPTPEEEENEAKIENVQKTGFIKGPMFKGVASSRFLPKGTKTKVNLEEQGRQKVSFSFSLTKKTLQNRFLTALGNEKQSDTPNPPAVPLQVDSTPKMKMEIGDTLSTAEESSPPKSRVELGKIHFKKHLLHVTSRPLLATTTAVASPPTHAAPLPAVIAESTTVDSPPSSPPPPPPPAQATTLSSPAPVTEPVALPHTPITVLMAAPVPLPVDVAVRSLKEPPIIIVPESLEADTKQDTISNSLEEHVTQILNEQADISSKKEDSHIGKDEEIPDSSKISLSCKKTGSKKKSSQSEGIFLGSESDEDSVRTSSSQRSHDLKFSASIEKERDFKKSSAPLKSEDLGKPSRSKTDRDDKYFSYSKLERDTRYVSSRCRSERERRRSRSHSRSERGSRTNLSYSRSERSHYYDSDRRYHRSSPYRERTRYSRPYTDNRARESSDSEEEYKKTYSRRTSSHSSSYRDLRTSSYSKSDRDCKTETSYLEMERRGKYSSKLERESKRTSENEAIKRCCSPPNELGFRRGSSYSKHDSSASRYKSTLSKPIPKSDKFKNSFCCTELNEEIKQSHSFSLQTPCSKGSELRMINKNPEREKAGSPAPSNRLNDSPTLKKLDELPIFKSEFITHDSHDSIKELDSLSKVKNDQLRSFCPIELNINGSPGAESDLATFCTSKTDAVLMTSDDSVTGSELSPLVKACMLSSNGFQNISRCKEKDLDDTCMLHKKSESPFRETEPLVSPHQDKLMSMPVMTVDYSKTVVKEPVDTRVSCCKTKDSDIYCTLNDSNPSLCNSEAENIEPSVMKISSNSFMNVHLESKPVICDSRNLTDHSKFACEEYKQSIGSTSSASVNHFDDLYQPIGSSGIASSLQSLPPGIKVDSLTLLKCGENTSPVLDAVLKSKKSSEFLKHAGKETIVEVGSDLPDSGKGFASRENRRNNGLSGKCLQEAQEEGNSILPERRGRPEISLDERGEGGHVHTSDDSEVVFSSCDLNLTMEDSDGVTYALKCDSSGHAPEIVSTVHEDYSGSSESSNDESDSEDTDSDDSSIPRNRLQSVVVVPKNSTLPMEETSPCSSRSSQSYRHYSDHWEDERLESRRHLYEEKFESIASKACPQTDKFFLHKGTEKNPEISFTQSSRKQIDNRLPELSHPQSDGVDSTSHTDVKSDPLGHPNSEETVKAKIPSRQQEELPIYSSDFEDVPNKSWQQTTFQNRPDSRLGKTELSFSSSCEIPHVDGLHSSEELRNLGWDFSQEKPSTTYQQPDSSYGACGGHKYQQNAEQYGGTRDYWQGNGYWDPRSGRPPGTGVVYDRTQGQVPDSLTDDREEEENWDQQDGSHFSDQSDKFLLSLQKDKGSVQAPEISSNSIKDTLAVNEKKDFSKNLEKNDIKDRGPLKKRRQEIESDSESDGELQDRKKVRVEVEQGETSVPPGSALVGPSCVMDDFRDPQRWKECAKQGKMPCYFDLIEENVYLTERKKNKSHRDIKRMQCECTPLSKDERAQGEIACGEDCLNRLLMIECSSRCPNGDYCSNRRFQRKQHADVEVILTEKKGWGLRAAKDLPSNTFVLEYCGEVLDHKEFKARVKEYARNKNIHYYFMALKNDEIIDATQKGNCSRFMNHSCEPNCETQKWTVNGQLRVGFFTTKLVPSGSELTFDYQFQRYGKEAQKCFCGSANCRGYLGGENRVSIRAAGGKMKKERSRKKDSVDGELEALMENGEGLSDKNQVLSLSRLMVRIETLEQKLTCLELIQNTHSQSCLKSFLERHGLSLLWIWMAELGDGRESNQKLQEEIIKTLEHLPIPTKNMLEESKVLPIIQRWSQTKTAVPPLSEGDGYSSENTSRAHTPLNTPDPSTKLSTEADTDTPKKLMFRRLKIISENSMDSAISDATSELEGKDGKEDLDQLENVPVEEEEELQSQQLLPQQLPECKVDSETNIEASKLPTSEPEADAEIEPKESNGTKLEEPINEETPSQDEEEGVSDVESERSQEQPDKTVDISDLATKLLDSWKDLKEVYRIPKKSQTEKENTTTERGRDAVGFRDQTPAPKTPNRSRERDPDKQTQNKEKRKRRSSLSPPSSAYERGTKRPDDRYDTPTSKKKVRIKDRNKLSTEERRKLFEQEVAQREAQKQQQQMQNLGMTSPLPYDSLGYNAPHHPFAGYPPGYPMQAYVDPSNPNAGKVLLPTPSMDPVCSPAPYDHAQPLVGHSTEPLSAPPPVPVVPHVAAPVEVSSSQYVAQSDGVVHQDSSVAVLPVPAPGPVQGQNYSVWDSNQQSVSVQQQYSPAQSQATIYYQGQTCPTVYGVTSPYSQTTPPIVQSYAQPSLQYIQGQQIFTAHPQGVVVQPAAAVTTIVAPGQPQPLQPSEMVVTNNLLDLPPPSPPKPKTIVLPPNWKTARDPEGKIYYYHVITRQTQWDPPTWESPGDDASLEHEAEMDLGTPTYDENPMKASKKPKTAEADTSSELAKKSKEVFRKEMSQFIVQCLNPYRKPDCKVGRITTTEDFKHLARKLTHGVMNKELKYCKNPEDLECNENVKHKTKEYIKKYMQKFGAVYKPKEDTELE
T2 sequence (O60678 whole entry): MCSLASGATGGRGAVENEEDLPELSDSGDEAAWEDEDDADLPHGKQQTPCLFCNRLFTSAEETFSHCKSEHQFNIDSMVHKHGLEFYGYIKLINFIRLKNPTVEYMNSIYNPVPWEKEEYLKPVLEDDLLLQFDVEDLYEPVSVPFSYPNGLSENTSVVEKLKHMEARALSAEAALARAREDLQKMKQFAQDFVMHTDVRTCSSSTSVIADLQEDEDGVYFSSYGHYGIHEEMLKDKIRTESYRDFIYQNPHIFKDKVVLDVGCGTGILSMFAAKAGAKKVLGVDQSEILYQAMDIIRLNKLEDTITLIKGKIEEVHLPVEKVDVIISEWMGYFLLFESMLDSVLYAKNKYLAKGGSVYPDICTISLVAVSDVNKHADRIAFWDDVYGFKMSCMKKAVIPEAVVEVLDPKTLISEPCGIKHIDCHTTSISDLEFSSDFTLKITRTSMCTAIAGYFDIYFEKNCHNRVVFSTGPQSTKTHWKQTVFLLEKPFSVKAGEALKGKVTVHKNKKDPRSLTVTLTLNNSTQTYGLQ

In the case of `Cc1c(NC(=O)c2cc(C(N)=O)nc3cc(F)ccc23)c(C(F)(F)F)nn1Cc1ccc(C(C)(C)C)cc1` [BAY-588], the inhibition at 10 µM in [1] is 7%; in [2] it was 5%; in test [3], 11%; in test [4], 10%; in test [5], 5%; in test [6], 9%. Also, the inhibition at 10 µM is 2% in [7], 0% in test [8] and 7% in [9].

For the molecule `COc1cc(Cl)c(C(=O)N[C@@H](CN[C@H]2CC[C@@H](N)CC2)Cc2ccc(C#N)cc2)cc1-c1ccc(CN[C@H](C)c2ccc(C)cc2)o1` [BAY-850], the inhibition at 10 µM in test [1] was -1%; in [2] it was 3%; in test [3] it was 2%; in test [4], 11%; in test [5], 8%; in [6] it was 25%. In addition, the figures for the inhibition at 10 µM in test [7], in test [8] and in test [9] were 2%, 7% and 0%, respectively.

With `Cc1c(NC(=O)c2cc(C(N)=O)nc3cc(F)ccc23)c(C(F)(F)F)nn1Cc1ccc(C#N)cc1` [BAY-876], the inhibition at 10 µM is 11% in test [1]; 1% in test [2]; 2% in test [3]; 10% in test [4]; -4% in [5]; 1% in test [6]. The values for the inhibition at 10 µM in test [7], in test [8] and in [9] were 0%, -4% and 0%, respectively.

As to `CN1C[C@H](Nc2cnn(C)c(=O)c2Br)C[C@H](c2ccccc2)C1` [GSK4027], the inhibition at 10 µM in test [1] was 8%; in test [2] it was 2%; in test [3], 4%; in test [4] it was 12%; in test [5] it was -1%; in [6], -2%. The figures for the inhibition at 10 µM in test [7], in test [8] and in test [9] were 2%, -1% and 2%, respectively.

Take `COc1ccccc1C(=O)Nc1cc2c(cc1N1CCNC[C@H]1C)n(C)c(=O)n2C` [GSK6853]: the “MTases Inhibition (%)” value in test [1] (10µM) turned out to be 7%; in test [2] (10µM), 1%; in [3] (10µM), 1%; in [4] (10µM), 7%; in test [5] (10µM), 1%; in test [6] (10µM) it was 2%. Further, the “MTases Inhibition (%)” value in [7] (10µM) came to 3%; in [8] (10µM), 1%; in [9] (10µM), 2%.

For `CO[C@H]1CNC[C@@H](OCC2CCC(F)(F)CC2)[C@@H]1Nc1ncc(-c2cncc(C)c2)c2cc(C)c(=O)[nH]c12` [GSK8814], the inhibition at 10 µM in test [1] amounted to 6%; in test [2], 3%; in test [3] it was 19%; in [4] it was 7%; in test [5], 1%; in test [6], 1%. Moreover, the inhibition at 10 µM in test [7] stood at 2%; in test [8], 7%; in test [9], 0%.

`Cc1nnc2c3ccccc3c(N[C@@H](C)[C@H](c3ccccc3)N(C)C)nn12` [L-Moses]: the inhibition at 10 µM is 20% in [1]; 0% in [2]; -6% in test [3]; 7% in [4]; 1% in test [5]; 6% in test [6]. The results for the inhibition at 10 µM in test [7], in test [8] and in test [9] were 2%, 11% and 1%, respectively.

Regarding `CN(C)CCCOc1ccc(-c2cc(NCCCn3cccn3)nc(S(C)(=O)=O)n2)cc1` [TP-238], the inhibition at 10 µM is 17% in [1]; 5% in test [2]; 1% in test [3]; -1% in [4]; -1% in test [5]; 3% in test [6]. Further, the inhibition at 10 µM is 1% in [7], 19% in test [8] and -3% in test [9].

These data come from article PMC6478789, “A chemical toolbox for the study of bromodomains and epigenetic signaling” (Nature Communications, 2019).
